The values below come from ChEMBL document CHEMBL1135903 (J Med Chem, 2002).

This test has as its target T1, Carbonic anhydrase 4 (Bos taurus, UniProt Q95323).
T1 sequence (Q95323 whole entry): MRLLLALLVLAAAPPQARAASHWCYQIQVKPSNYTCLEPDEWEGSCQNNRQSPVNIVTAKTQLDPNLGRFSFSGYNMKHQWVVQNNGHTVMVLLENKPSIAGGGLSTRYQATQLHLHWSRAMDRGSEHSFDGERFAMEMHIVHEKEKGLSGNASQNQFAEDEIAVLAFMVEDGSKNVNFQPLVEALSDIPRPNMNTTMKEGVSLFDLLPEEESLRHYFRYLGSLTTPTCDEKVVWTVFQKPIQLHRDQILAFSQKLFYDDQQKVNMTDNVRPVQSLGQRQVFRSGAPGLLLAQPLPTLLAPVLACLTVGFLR
Description: Inhibitory activity against bovine carbonic anhydrase IV
As a reminder, the Ki is the dissociation constant of the complex between target and ligand, obtained from inhibition or displacement. Higher therefore signals a looser hold on the target. `NS(=O)(=O)c1ccc(NC(=O)CN(CCN(CCN(CC(=O)O)CC(=O)O)CC(=O)O)CC(=O)O)c(Cl)c1` showed a Ki of 32 nM.
The value for `Cn1nc(S(N)(=O)=O)s/c1=N/C(=O)CN(CCN(CCN(CC(=O)O)CC(=O)O)CC(=O)O)CC(=O)O` was 19 nM.
Regarding `NS(=O)(=O)c1ccc(NC(=O)CN(CCN(CCN(CC(=O)O)CC(=O)Nc2ccc(S(N)(=O)=O)cc2Cl)CC(=O)O)CC(=O)O)c(Cl)c1`, the affinity corresponds to a Ki of 27 nM. The Ki values of the last two molecules are within 1.5-fold of each other.
In the case of `NS(=O)(=O)c1cc(S(N)(=O)=O)c(NC(=O)CN(CCN(CCN(CC(=O)O)CC(=O)O)CC(=O)O)CC(=O)O)c(Cl)c1Cl` it was 36 nM; in that of `Cn1nc(S(N)(=O)=O)s/c1=N/C(=O)CN(CCN(CC(=O)O)CC(=O)/N=c1/sc(S(N)(=O)=O)nn1C)CC(=O)O`, 8 nM; in that of `NS(=O)(=O)c1nnc(NC(=O)CN(CCN(CCN(CC(=O)O)CC(=O)Nc2nnc(S(N)(=O)=O)s2)CC(=O)O)CC(=O)O)s1`, 4 nM.
With `NS(=O)(=O)c1ccc(CNC(=O)CN(CCN(CCN(CC(=O)O)CC(=O)NCc2ccc(S(N)(=O)=O)cc2)CC(=O)O)CC(=O)O)cc1` [listing 1 of 2 here], the Ki is 21 nM.
In the case of `NS(=O)(=O)c1ccc(CNC(=O)CN(CCN(CC(=O)O)CC(=O)NCc2ccc(S(N)(=O)=O)cc2)CC(=O)O)cc1` [listing 1 of 2 here] it was 10 nM; in that of `NS(=O)(=O)c1cccc(NC(=O)CN(CCN(CCN(CC(=O)O)CC(=O)O)CC(=O)O)CC(=O)O)c1`, 500 nM; in that of `NS(=O)(=O)c1ccc(COC(=O)CN(CCN(CCN(CC(=O)O)CC(=O)OCc2ccc(S(N)(=O)=O)cc2)CC(=O)O)CC(=O)O)cc1`, 170 nM.
Take `NS(=O)(=O)c1nnc(NC(=O)CN(CCN(CC(=O)O)CC(=O)Nc2nnc(S(N)(=O)=O)s2)CC(=O)O)s1` [listing 1 of 2 here]: the Ki was 5 nM.
In the case of `NS(=O)(=O)c1ccc(COC(=O)CN(CCN(CCN(CC(=O)O)CC(=O)O)CC(=O)O)CC(=O)O)cc1` it was 265 nM.
The value for `NS(=O)(=O)c1ccc(CCNC(=O)CN(CCN(CCN(CC(=O)O)CC(=O)O)CC(=O)O)CC(=O)O)cc1` was 36 nM; that for `NS(=O)(=O)c1ccc(CCNC(=O)CN(CCN(CCN(CC(=O)O)CC(=O)NCCc2ccc(S(N)(=O)=O)cc2)CC(=O)O)CC(=O)O)cc1` [listing 1 of 2 here] was 16 nM; that for `NS(=O)(=O)c1cccc(NC(=O)CN(CCN(CCN(CC(=O)O)CC(=O)Nc2cccc(S(N)(=O)=O)c2)CC(=O)O)CC(=O)O)c1` was 425 nM.
In the case of `NS(=O)(=O)c1nnc(NC(=O)CCNC(=O)CN(CCN(CCN(CC(=O)O)CC(=O)O)CC(=O)O)CC(=O)O)s1` it was 16 nM; in that of `NS(=O)(=O)c1nc2ccc(OCCOC(=O)CN(CCN(CCN(CC(=O)O)CC(=O)O)CC(=O)O)CC(=O)O)cc2s1`, 5 nM; in that of `NS(=O)(=O)c1ccc(NC(=O)CN(CCN(CC(=O)O)CC(=O)Nc2ccc(S(N)(=O)=O)cc2)CC(=O)O)cc1` [listing 1 of 2 here], 230 nM.
The molecule `NS(=O)(=O)c1ccc(CCOC(=O)CN(CCN(CCN(CC(=O)O)CC(=O)OCCc2ccc(S(N)(=O)=O)cc2)CC(=O)O)CC(=O)O)cc1` gave a Ki of 115 nM. This Ki lies about 2-fold lower than the previous one.
Turning to `NS(=O)(=O)c1ccc(NC(=O)CN(CCN(CCN(CC(=O)O)CC(=O)O)CC(=O)O)CC(=O)O)c(I)c1`, affinity was put at a Ki of 29 nM.
The value for `NS(=O)(=O)c1nnc(NC(=O)CCNC(=O)CN(CCN(CCN(CC(=O)O)CC(=O)NCCC(=O)Nc2nnc(S(N)(=O)=O)s2)CC(=O)O)CC(=O)O)s1` was 8 nM.
In the case of `NS(=O)(=O)c1cc(S(N)(=O)=O)c(NC(=O)CN(CCN(CCN(CC(=O)O)CC(=O)O)CC(=O)O)CC(=O)O)cc1Cl` it was 52 nM; in that of `NS(=O)(=O)c1nc2ccc(NC(=O)CN(CCN(CCN(CC(=O)O)CC(=O)Nc3ccc4nc(S(N)(=O)=O)sc4c3)CC(=O)O)CC(=O)O)cc2s1`, 6 nM; in that of `NS(=O)(=O)c1nc2ccc(NC(=O)CN(CCN(CCN(CC(=O)O)CC(=O)O)CC(=O)O)CC(=O)O)cc2s1`, 9 nM.
The value for `NS(=O)(=O)c1ccc(CNC(=O)CN(CCN(CC(=O)O)CC(=O)NCc2ccc(S(N)(=O)=O)cc2)CC(=O)O)cc1` [listing 2 of 2 here] was 62 nM; that for `NS(=O)(=O)c1ccc(CCNC(=O)CN(CCN(CC(=O)O)CC(=O)NCCc2ccc(S(N)(=O)=O)cc2)CC(=O)O)cc1` [listing 1 of 2 here] was 13 nM.
Consider `NS(=O)(=O)c1ccc(CCNC(=O)CN(CCN(CC(=O)O)CC(=O)NCCc2ccc(S(N)(=O)=O)cc2)CC(=O)O)cc1` [listing 2 of 2 here], for which the affinity corresponds to a Ki of 54 nM.
Molecule `NS(=O)(=O)c1cc(S(N)(=O)=O)c(NC(=O)CN(CCN(CCN(CC(=O)O)CC(=O)Nc2cc(Cl)c(S(N)(=O)=O)cc2S(N)(=O)=O)CC(=O)O)CC(=O)O)cc1Cl` returned a Ki of 41 nM.
In the case of `NS(=O)(=O)c1ccc(NC(=O)CN(CCN(CCN(CC(=O)O)CC(=O)O)CC(=O)O)CC(=O)O)c(F)c1` it was 29 nM.
`NS(=O)(=O)c1ccc(NC(=O)CN(CCN(CC(=O)O)CC(=O)Nc2ccc(S(N)(=O)=O)cc2)CC(=O)O)cc1` [listing 2 of 2 here] yielded a Ki of 210 nM.
On to `NS(=O)(=O)c1ccc(CNC(=O)CN(CCN(CCN(CC(=O)O)CC(=O)O)CC(=O)O)CC(=O)O)cc1`, for which the Ki was 40 nM.
In the case of `NS(=O)(=O)c1ccc(NC(=O)CN(CCN(CCN(CC(=O)O)CC(=O)O)CC(=O)O)CC(=O)O)c(Br)c1` it was 27 nM; in that of `NS(=O)(=O)c1ccc(CNC(=O)CN(CCN(CCN(CC(=O)O)CC(=O)NCc2ccc(S(N)(=O)=O)cc2)CC(=O)O)CC(=O)O)cc1` [listing 2 of 2 here], 37 nM.
The value for `NS(=O)(=O)c1ccc(NC(=O)CN(CCN(CCN(CC(=O)O)CC(=O)Nc2ccc(S(N)(=O)=O)cc2Br)CC(=O)O)CC(=O)O)c(Br)c1` was 21 nM; that for `NS(=O)(=O)c1cccc(NC(=O)CN(CCN(CC(=O)O)CC(=O)Nc2cccc(S(N)(=O)=O)c2)CC(=O)O)c1` was 620 nM.
In the case of `NS(=O)(=O)c1ccc(CCOC(=O)CN(CCN(CCN(CC(=O)O)CC(=O)O)CC(=O)O)CC(=O)O)cc1` it was 190 nM.
`NS(=O)(=O)c1ccc(CCNC(=O)CN(CCN(CCN(CC(=O)O)CC(=O)NCCc2ccc(S(N)(=O)=O)cc2)CC(=O)O)CC(=O)O)cc1` [listing 2 of 2 here] displayed an inhibition constant Ki of 25 nM.
In the case of `NS(=O)(=O)c1ccc(NC(=O)CN(CCN(CCN(CC(=O)O)CC(=O)Nc2ccc(S(N)(=O)=O)cc2)CC(=O)O)CC(=O)O)cc1` it was 100 nM.
Consider `NS(=O)(=O)c1ccccc1NC(=O)CN(CCN(CCN(CC(=O)O)CC(=O)Nc1ccccc1S(N)(=O)=O)CC(=O)O)CC(=O)O`, for which the Ki was 330 nM.
In the case of `NS(=O)(=O)c1nc2ccc(OC(=O)CN(CCN(CCN(CC(=O)O)CC(=O)O)CC(=O)O)CC(=O)O)cc2s1` it was 6 nM.
Turning to `NS(=O)(=O)c1ccc(NC(=O)CN(CCN(CCN(CC(=O)O)CC(=O)Nc2ccc(S(N)(=O)=O)cc2I)CC(=O)O)CC(=O)O)c(I)c1`, the Ki is 24 nM. Against the preceding molecule, the Ki is about 4-fold higher.
In turn, `NS(=O)(=O)c1ccc(NNC(=O)CN(CCN(CCN(CC(=O)O)CC(=O)NNc2ccc(S(N)(=O)=O)cc2)CC(=O)O)CC(=O)O)cc1` displayed a Ki of 430 nM. This Ki lies about 18-fold higher than the previous one.
On to `NS(=O)(=O)c1nnc(NC(=O)CN(CCN(CC(=O)O)CC(=O)Nc2nnc(S(N)(=O)=O)s2)CC(=O)O)s1` [listing 2 of 2 here], for which the affinity corresponds to a Ki of 12 nM.
Regarding `NS(=O)(=O)c1cc(S(N)(=O)=O)c(NC(=O)CN(CCN(CCN(CC(=O)O)CC(=O)Nc2c(S(N)(=O)=O)cc(S(N)(=O)=O)c(Cl)c2Cl)CC(=O)O)CC(=O)O)c(Cl)c1Cl`, the Ki is 25 nM.
`NS(=O)(=O)c1ccc(NC(=O)CN(CCN(CCN(CC(=O)O)CC(=O)Nc2ccc(S(N)(=O)=O)cc2F)CC(=O)O)CC(=O)O)c(F)c1` displayed a Ki of 18 nM. This Ki and that of the molecule before are within 1.5-fold of each other.
The value for `NS(=O)(=O)c1ccc(NNC(=O)CN(CCN(CCN(CC(=O)O)CC(=O)O)CC(=O)O)CC(=O)O)cc1` was 630 nM.
